# Laboratory results as given in US20190038597A1, “PREVENTION OF VASCULAR AND CARDIAC FIBROSIS VIA IRE1ALPHA INHIBITION” (McMaster University, priority 2017, published 2019).
# Test system: GRP78, GRP94 and PDI
# Assay: Western blot of ER chaperone / ER stress marker expression in VSMCs
# Assay type: cell-based, rat
# Protocol: VSMCs were treated with tunicamycin (1 μg/ml) and either 4μ8c (30 μM) or STF-083010 (60 μM) for 6 h or 24 h. (A) Agarose gel for assessment of XBP1 splicing after 6 h of treatment with tunicamycin and densitometric quantification. (B) Western blot for assessment of ER chaperone expression after 24 h tunicamycin treatment with or without inhibition of IRE1α by 4μ8c. Data is presented as mean±SEM. *, p<0.05 vs. Vehicle; #, p<0.05 vs. Tm.
# VSMCs were cultured in DMEM/F12 containing 1% FBS. Confluent cells were treated with L-ascorbic acid-2-phosphate (100 μg/ml) and either TGF-β1 (5 ng/ml) or Ang II (1 μM). (A) Agarose gel for assessment of TGF-β1-induced XBP1 splicing in VSMCs after 24 h. (B) Picro-Sirius Red assay for measurement of collagen deposition induced by combined TGF-β1 and AA2P treatment after 72 h, and inhibition by 4μ8c and STF-083010. (C) Western blot for assessment of collagen chaperone expression after treatment of TGF-β1 and 4μ8c for 48 h. *, p<0.05. (D) Measurement of Ang II-induced collagen production and inhibition by 4μ8c and STF-083010 after 72 h.
# VSMCs were isolated from the aortas of 5-week old WKY rats using the explant method^29. The thoracic aorta was removed from the animal and placed in ice-cold 5× Antibiotics-Antimycotics solution (ThermoFisher). The adventitia was gently removed and the aorta was cut longitudinally. The endothelial layer was removed by gentle scraping with forceps. The aorta was cut into 3 mm^2 squares and placed on a 6 well plate in DMEM/F12 medium containing 10% fetal bovine serum (FBS). Explants were incubated undisturbed in a 5% CO2 incubator at 37° C. for 1 week and then passaged. […]
# Cells were lysed in 1× Laemmli buffer and protein content was quantified using the BioRad DC Protein Assay (BioRad, Mississauga, Canada). […]
smiles,measurement,setting,value
"Cc1cc(=O)oc2c(C=O)c(O)ccc12 [4μ8c, 7-Hydroxy-4-methyl-2-oxo-2H-chromene-8-carbaldehyde]","elevated expression levels of ER stress markers GRP78, GRP94 and PDI","24 h tunicamycin treatment, FIG. 1B",reduced
same,"TGF-β1-increased expression of collagen chaperones and ER stress markers GRP78, GRP94 and PDI","TGF-β1 48 h, FIG. 2C",lowered
